# According to patent US11040954B1, “CXCR3 receptor agonists” (RECEPTOS LLC, priority 2016, dated 2021):
# Biological target: T1, CXCR3 (Homo sapiens, UniProt P49682)
# T1 construct: host or cells: CHO-K1 (cAMP Hunter CHOK1 CXCR3 Gi cell line)
# T1 sequence (P49682 1-368): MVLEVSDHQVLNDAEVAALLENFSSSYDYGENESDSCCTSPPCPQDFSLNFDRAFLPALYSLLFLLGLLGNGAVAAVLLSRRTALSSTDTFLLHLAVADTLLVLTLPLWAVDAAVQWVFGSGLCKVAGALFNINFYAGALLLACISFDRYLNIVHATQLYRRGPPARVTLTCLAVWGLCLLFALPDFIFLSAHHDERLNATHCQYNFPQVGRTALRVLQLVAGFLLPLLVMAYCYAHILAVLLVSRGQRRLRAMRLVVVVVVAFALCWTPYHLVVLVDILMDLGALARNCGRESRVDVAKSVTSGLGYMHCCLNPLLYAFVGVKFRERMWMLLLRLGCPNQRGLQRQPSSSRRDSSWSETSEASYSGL
# Assay: CXCR3 cAMP agonist assay (cAMP Hunter CHOK1 CXCR3 Gi cell line, forskolin-stimulated, HitHunter cAMP detection)
# Assay type: cell-based
# Settings: cAMP Hunter CHOK1 CXCR3 Gi cells, 20 μM forskolin, 30 minutes; read-out: Activity (CXCR3 cAMP agonist assay compound EC50)
# Method in brief: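 Agonist activity was measured as suppression of forskolin (20 μM)-induced cAMP, read by luminescent enzyme-fragment complementation with a cAMP standard curve and CXCL11 defining full efficacy. Assay used 50,000 CXCR3 Gi CHOK1 cells/well in pH 7.4 HEPES-buffered HBSS with 0.1% BSA, compound 0-10 μM over 12 points, 30 min incubation.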
row,Compound,EC50 [nM]
1,CN(C(=O)CCC(=O)N1Cc2ccccc2C[C@H]1C(=O)N[C@@H](CCN)C(=O)Nc1ccc(Cl)c(Cl)c1F)C(C)(C)C [Compound 15-53],50 to 250
2,NCC[C@H](NC(=O)[C@@H]1Cc2ccccc2CN1C(=O)CCC(=O)N1CC2CCCCC2C1)C(=O)Nc1ccc(Cl)c(Cl)c1F (some centres unmarked) [Compound 15-54],< 50
3,CC(C)(O)C1CCCCN1C(=O)CCC(=O)N1Cc2ccccc2C[C@H]1C(=O)N[C@@H](CCN)C(=O)Nc1ccc(Cl)c(Cl)c1F (some centres unmarked) [Compound 15-55],< 50
4,NCC[C@H](NC(=O)[C@@H]1Cc2ccccc2CN1C(=O)CCC(=O)N1CCCCC1C(F)F)C(=O)Nc1ccc(Cl)c(Cl)c1F (some centres unmarked) [Compound 15-56],< 50
5,CC1(C)CCCN(C(=O)CCC(=O)N2Cc3cc(F)ccc3C[C@H]2C(=O)N[C@@H](CCN)C(=O)Nc2ccc(Cl)c(Cl)c2F)C1 [Compound 15-57],< 50
6,NCC[C@H](NC(=O)[C@@H]1Cc2ccc(F)cc2CN1C(=O)CCC(=O)N1CCCC2(CCC2)C1)C(=O)Nc1ccc(Cl)c(Cl)c1F [Compound 15-58],< 50
7,NCC[C@H](NC(=O)[C@@H]1Cc2ccc(F)cc2CN1C(=O)CCC(=O)N1CCCC12CCC2)C(=O)Nc1ccc(Cl)c(Cl)c1F [Compound 15-59],< 50
8,CC1(C)CCN(C(=O)CCC(=O)N2Cc3cc(F)ccc3C[C@H]2C(=O)N[C@@H](CCN)C(=O)Nc2ccc(Cl)c(Cl)c2F)CC1 [Compound 15-60],< 50
9,CC1(C)CCCN1C(=O)CCC(=O)N1Cc2cc(F)ccc2C[C@H]1C(=O)N[C@@H](CCN)C(=O)Nc1ccc(Cl)c(Cl)c1F [Compound 15-61],< 50
10,C[C@H]1CN(C(=O)CCC(=O)N2Cc3ccccc3C[C@H]2C(=O)N[C@@H](CCN)C(=O)Nc2ccc(Cl)c(Cl)c2F)CCN1C [Compound 15-63],< 50
11,C[C@@H]1CN(C(=O)CCC(=O)N2Cc3ccccc3C[C@H]2C(=O)N[C@@H](CCN)C(=O)Nc2ccc(Cl)c(Cl)c2F)CCN1C [Compound 15-64],50 to 250
12,"Cc1cc(NC(=O)[C@H](CCNC2CC2)NC(=O)[C@@H]2Cc3ccccc3CN2C(=O)CCC(=O)c2ccccc2)ccc1Cl [Compound 16-1, (S)—N—((S)-1-((4-chloro-3-methylphenyl)amino)-4-(cyclopropylamino)-1-oxobutan-2-yl)-2-(4-oxo-4-phenylbutanoyl)-1,2,3,4-tetrahydroisoquinoline-3-carboxamide]",< 50
13,"Cc1cc(NC(=O)[C@H](CCN2CCC(O)CC2)NC(=O)[C@@H]2Cc3ccccc3CN2C(=O)CCC(=O)c2ccccc2)ccc1Cl [Compound 17-1, (S)—N—((S)-1-((4-chloro-3-methylphenyl)amino)-4-(4-hydroxypiperidin-1-yl)-1-oxobutan-2-yl)-2-(4-oxo-4-phenylbutanoyl)-1,2,3,4-tetrahydroisoquinoline-3-carboxamide]",< 50
14,Cc1cc(NC(=O)[C@H](CCC2CCN(C(=O)OC(C)(C)C)CC2)NC(=O)[C@@H]2Cc3ccccc3CN2C(=O)CCC(=O)c2ccccc2)ccc1Cl [Compound 17-2],250 to 500
15,Cc1cc(NC(=O)[C@H](CCN2CCNC(=O)C2)NC(=O)[C@@H]2Cc3ccccc3CN2C(=O)CCC(=O)c2ccccc2)ccc1Cl [Compound 17-3],50 to 250
16,Cc1cc(NC(=O)[C@H](CCN2CCC(F)(F)CC2)NC(=O)[C@@H]2Cc3ccccc3CN2C(=O)CCC(=O)c2ccccc2)ccc1Cl [Compound 17-4],50 to 250
17,"CC(=O)N1CCN(CC[C@H](NC(=O)[C@@H]2Cc3ccccc3CN2C(=O)CCC(=O)c2ccccc2)C(=O)Nc2ccc(Cl)c(C)c2)CC1 [Compound 19-1, (S)—N—((S)-4-(4-acetylpiperazin-1-yl)-1-((4-chloro-3-methylphenyl)amino)-1-oxobutan-2-yl)-2-(4-oxo-4-phenylbutanoyl)-1,2,3,4-tetrahydroisoquinoline-3-carboxamide]",250 to 500
